Common to all, as to format: cell-based
For one assay, the target named is T1, PPAR-gamma (Homo sapiens, UniProt P37231).
T1 construct: expressed in transfected cells; host or cells: CV-1 cells
T1 sequence (P37231 238-503 limits assumed): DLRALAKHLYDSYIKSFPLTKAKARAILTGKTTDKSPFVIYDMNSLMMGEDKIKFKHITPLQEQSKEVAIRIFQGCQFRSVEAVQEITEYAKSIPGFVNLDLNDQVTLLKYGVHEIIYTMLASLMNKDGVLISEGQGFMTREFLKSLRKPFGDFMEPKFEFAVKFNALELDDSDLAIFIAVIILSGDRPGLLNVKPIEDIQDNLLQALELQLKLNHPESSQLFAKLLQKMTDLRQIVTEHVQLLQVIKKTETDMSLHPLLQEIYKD
Description: human PPAR-GAL4 chimera luciferase reporter assay in CV-1 cells, PPAR-gamma. The procedure:
(§1) The compounds were evaluated in a cell-based assay to determine their human PPAR activity. The plasmids for human PPAR-GAL4 chimeras were prepared by fusing amplified cDNAs encoding the LBDs of PPARs to the C-terminal end of the yeast GAL4 DNA binding domain. CV-1 cells were grown and transiently transected with PerFectin (GTS, San Diego, Calif.) according to the manufacturer's protocol along with a luciferase reporter. Eight hours after transfection, 50 μl of cells were replated into 384 well plates ([…]). Sixteen hours after replating, cells were treated with either compounds or 1% DMSO for 24 hours. Luciferase activity was then assayed with Britelite (Perkin Elmer) following the manufacturer's protocol and measured with either the Perkin Elmer Viewlux or Molecular Devices Acquest.
(§2) Compounds may be screened for functional potency in transient transfection assays in CV-1 cells for their ability to activate the PPAR subtypes (transactivation assay). A previously established chimeric receptor system was utilized to allow comparison of the relative transcriptional activity of the receptor subtypes on the same synthetic response element and to prevent endogenous receptor activation from complicating the interpretation of results. See, for example, Lehmann, J. M.; Moore, L. B.; Smith-Oliver, T. A; Wilkinson, W. O.; Willson, T. M.; Kliewer, S. A., An antidiabetic thiazolidinedione is a high affinity ligand for peroxisome proliferator-activated receptory γ (PPARγ), J. Biol. Chem., 1995, 270, 12953-6. The ligand binding domains for murine and human PPAR-alpha, PPAR-gamma, and PPAR-delta are each fused to the yeast transcription factor GAL4 DNA binding domain. CV-1 cells were transiently transfected with expression vectors for the respective PPAR chimera along with a reporter construct containing four or five copies of the GAL4 DNA binding site driving expression of luciferase. After 8-16 h, the cells are replated into multi-well assay plates and the media is exchanged to phenol-red free DME medium supplemented with 5% delipidated calf serum. 4 hours after replating, cells were treated with either compounds or 1% DMSO for 20-24 hours. Luciferase activity was then assayed with Britelite (Perkin Elmer) following the manufacturer's protocol and measured with either the Perkin Elmer Viewlux or Molecular Devices Acquest (see, for example, Kliewer, S. A., et. al. Cell 1995, 83, 813-819). Rosiglitazone is used as a positive control in the hPPAR-γ assay. Wy-14643 and GW7647 is used as a positive control in the hPPAR-α assay. GW501516 is used as the positive control in the hPPAR-δ assay.

Another assay has as its target T2, PPAR-delta (Homo sapiens, UniProt Q03181).
T2 construct: expressed in transfected cells; host or cells: CV-1 cells
T2 sequence (Q03181 211-439 limits assumed): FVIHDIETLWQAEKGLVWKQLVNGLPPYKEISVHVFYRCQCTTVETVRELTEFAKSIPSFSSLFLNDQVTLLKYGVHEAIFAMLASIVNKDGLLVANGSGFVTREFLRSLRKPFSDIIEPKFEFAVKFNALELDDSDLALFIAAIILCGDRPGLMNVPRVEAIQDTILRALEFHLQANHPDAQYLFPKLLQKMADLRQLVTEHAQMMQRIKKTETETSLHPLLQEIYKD
Briefly: human PPAR-GAL4 chimera luciferase reporter assay in CV-1 cells, PPAR-delta. The method, then:
as §1, §2
In general terms: A reporter such as luciferase makes a cellular process visible.

In the next assay the target is T3, PPAR-alpha (Homo sapiens, UniProt Q07869).
T3 construct: expressed in transfected cells; host or cells: CV-1 cells
T3 sequence (Q07869 239-466 limits assumed): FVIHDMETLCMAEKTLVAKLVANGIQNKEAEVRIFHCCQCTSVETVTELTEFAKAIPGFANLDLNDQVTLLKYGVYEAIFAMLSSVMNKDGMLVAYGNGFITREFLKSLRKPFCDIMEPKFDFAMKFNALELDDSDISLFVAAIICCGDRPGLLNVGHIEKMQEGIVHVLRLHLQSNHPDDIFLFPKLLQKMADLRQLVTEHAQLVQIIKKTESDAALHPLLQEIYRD
Description: human PPAR-GAL4 chimera luciferase reporter assay in CV-1 cells, PPAR-alpha. The method, then: as §1, §2

Where [1] appears, read: Table 2, Examples 1-10, read-out: PPAR γ EC50.
Setting [2] is: Table 2, Examples 1-10, read-out: PPAR δ EC50.
The mark [3] stands for this setting: Table 2, Examples 1-10, read-out: PPAR α EC50.
Setting [4] is: Table 3, Examples 11-25, read-out: PPAR gamma (EC50).
The mark [5] stands for this setting: Table 3, Examples 11-25, read-out: PPAR delta (EC50).
Where [6] appears, read: Table 3, Examples 11-25, read-out: PPAR alpha (EC50).

Where two headings read alike, the source gives them in different places.

Turning to `Cc1nc(-c2ccc(C(F)(F)F)cc2)sc1COc1cccc2c1ccn2CC(=O)O` [Example 4, {4-[4-methyl-2-(4-trifluoromethyl-phenyl)-thiazol-5-ylmethoxy]-indol-1-yl}-acetic acid], the EC50 on PPAR-gamma (setting [1]) is 1 to 10 µM; at PPAR-delta (setting [2]), less than 1 µM; on PPAR-alpha (setting [3]), more than 10 µM.
As to `Cc1nc(-c2ccc(C(F)(F)F)cc2)sc1CCN1CCc2cc(OC(C)(C)C(=O)O)ccc21` [Example 19, 2-Methyl-2-(1-{2-[4-methyl-2-(4-trifluoromethyl-phenyl)-thiazol-5-yl]-ethyl}-2,3-dihydro-1H-indol-5-yloxy)-propionic acid], the EC50 is 5 to 100 µM at PPAR-gamma (setting [4]), less than 5 µM on PPAR-delta (setting [5]) and less than 5 µM on PPAR-alpha (setting [6]).
`Cc1nc(-c2ccc(C(F)(F)F)cc2)sc1Cn1ccc2cc(OC(C)(C)C(=O)O)ccc21` [Example 15, 2-Methyl-2-{1-[4-methyl-2-(4-trifluoromethyl-phenyl)-thiazol-5-ylmethyl]-1H-indol-5-yloxy}-propionic acid]: the EC50 at PPAR-gamma (setting [4]) was 5 to 100 µM; at PPAR-delta (setting [5]), less than 5 µM; on PPAR-alpha (setting [6]), less than 5 µM.
Consider `Cc1nc(-c2ccc(C(F)(F)F)cc2)sc1Cn1cc(C(=O)O)c2ccccc21` [Example 8], for which the EC50 at PPAR-gamma (setting [1]), at PPAR-delta (setting [2]) and on PPAR-alpha (setting [3]) was more than 10 µM in each case.
On to `Cc1nc(-c2ccc(C(F)(F)F)cc2)sc1Cn1ccc2cccc(OCC(=O)O)c21` [Example 14, {1-[4-Methyl-2-(4-trifluoromethyl-phenyl)-thiazol-5-ylmethyl]-1H-indol-7-yloxy}-acetic acid], for which the EC50 on PPAR-gamma (setting [4]) was 5 to 100 µM; on PPAR-delta (setting [5]), 5 to 100 µM; at PPAR-alpha (setting [6]) it was more than 100 µM.
For `Cc1nc(-c2ccc(C(F)(F)F)cc2)sc1CCn1ccc2cc(OCC(=O)O)ccc21` [Example 18, (1-{2-[4-Methyl-2-(4-trifluoromethyl-phenyl)-thiazol-5-yl]-ethyl}-1H-indol-5-yloxy)-acetic acid], the EC50 at PPAR-gamma (setting [4]), at PPAR-delta (setting [5]) and at PPAR-alpha (setting [6]) was 5 to 100 µM in each case.
On to `Cc1nc(-c2ccc(C(F)(F)F)cc2)sc1Cn1ccc2ccc(OCC(=O)O)cc21` [Example 13, {1-[4-Methyl-2-(4-trifluoromethyl-phenyl)-thiazol-5-ylmethyl]-1H-indol-6-yloxy}-acetic acid], for which the EC50 on PPAR-gamma (setting [4]) was 5 to 100 µM; at PPAR-delta (setting [5]) it was less than 5 µM; at PPAR-alpha (setting [6]), 5 to 100 µM.
As to `Cc1nc(-c2ccc(C(F)(F)F)cc2)sc1Cn1ccc2c(C(=O)O)cccc21` [Example 9, 1-[4-methyl-2-(4-trifluoromethyl-phenyl)-thiazol-5-ylmethyl]-1H-indole-4-carboxylic acid], the EC50 on PPAR-gamma (setting [1]), at PPAR-delta (setting [2]) and at PPAR-alpha (setting [3]) was more than 10 µM each time.
On to `Cc1nc(-c2ccc(C(F)(F)F)cc2)sc1Cn1cc(CC(=O)O)c2ccccc21` [Example 24, {1-[4-Methyl-2-(4-trifluoromethyl-phenyl)-thiazol-5-ylmethyl]-1H-indol-3-yl}acetic acid], for which the EC50 at PPAR-gamma (setting [4]) is 5 to 100 µM; on PPAR-delta (setting [5]), less than 5 µM; at PPAR-alpha (setting [6]), 5 to 100 µM.
On to `Cc1nc(-c2ccc(C(F)(F)F)cc2)sc1CCn1ccc2ccc(OCC(=O)O)cc21` [Example 22, (1-{2-[4-Methyl-2-(4-trifluoromethyl-phenyl)-thiazol-5-yl]-ethyl}-1H-indol-6-yloxy)-acetic acid], for which the EC50 at PPAR-gamma (setting [4]), at PPAR-delta (setting [5]) and at PPAR-alpha (setting [6]) was 5 to 100 µM each time.
For the molecule `Cc1nc(-c2ccc(C(F)(F)F)cc2)sc1CCn1ccc2ccc(OC(C)(C)C(=O)O)cc21` [Example 23, 2-Methyl-2-(1-{2-[4-methyl-2-(4-trifluoromethyl-phenyl)-thiazol-5-yl]-ethyl}-1H-indol-6-yloxy)-propionic acid], the EC50 is 5 to 100 µM at PPAR-gamma (setting [4]), 5 to 100 µM at PPAR-delta (setting [5]) and less than 5 µM at PPAR-alpha (setting [6]).
As to `Cc1nc(-c2ccc(C(F)(F)F)cc2)sc1Cn1ccc2cc(C(=O)O)ccc21` [Example 10, 1-[4-methyl-2-(4-trifluoromethyl-phenyl)-thiazol-5-ylmethyl]-1H-indole-5-carboxylic acid], the EC50 on PPAR-gamma (setting [1]), on PPAR-delta (setting [2]) and at PPAR-alpha (setting [3]) was more than 10 µM throughout.
Take `Cc1nc(-c2ccc(C(F)(F)F)cc2)sc1CCn1ccc2cc(OC(C)(C)C(=O)O)ccc21` [Example 21, 2-Methyl-2-(1-{2-[4-methyl-2-(4-trifluoromethyl-phenyl)-thiazol-5-yl]-ethyl}-1H-indol-5-yloxy)-propionic acid]: the EC50 at PPAR-gamma (setting [4]), on PPAR-delta (setting [5]) and at PPAR-alpha (setting [6]) was 5 to 100 µM throughout.
Turning to `Cc1nc(-c2ccc(C(F)(F)F)cc2)sc1Cn1ccc2ccc(OC(C)(C)C(=O)O)cc21` [Example 16, 2-Methyl-2-{1-[4-methyl-2-(4-trifluoromethyl-phenyl)-thiazol-5-ylmethyl]-1H-indol-6-yloxy}-propionic acid], the EC50 at PPAR-gamma (setting [4]) is 5 to 100 µM; on PPAR-delta (setting [5]), less than 5 µM; on PPAR-alpha (setting [6]) it was 5 to 100 µM.
Consider `Cc1nc(-c2ccc(C(F)(F)F)cc2)sc1COc1cccc(CC(=O)O)c1` [Example 1, {3-[4-methyl-2-(4-trifluoromethyl-phenyl)-thiazol-5-ylmethoxy]-phenyl}-acetic acid], for which the values for the EC50 on PPAR-gamma (setting [1]), on PPAR-delta (setting [2]) and at PPAR-alpha (setting [3]) were 1 to 10 µM, less than 1 µM and less than 1 µM, respectively.
Take `Cc1nc(-c2ccc(C(F)(F)F)cc2)sc1CCN1CCc2ccc(OC(C)(C)C(=O)O)cc21` [Example 20, 2-Methyl-2-(1-{2-[4-methyl-2-(4-trifluoromethyl-phenyl)-thiazol-5-yl]-ethyl}-2,3-dihydro-1H-indol-6-yloxy)-propionic acid]: the EC50 is 5 to 100 µM on PPAR-gamma (setting [4]), 5 to 100 µM at PPAR-delta (setting [5]) and less than 5 µM at PPAR-alpha (setting [6]).
Regarding `Cc1nc(-c2ccc(C(F)(F)F)cc2)sc1COc1ccc2c(ccn2CC(=O)O)c1` [Example 3, {5-[4-methyl-2-(4-trifluoromethyl-phenyl)-thiazol-5-ylmethoxy]-indol-1-yl}-acetic acid], the EC50 at PPAR-gamma (setting [1]), on PPAR-delta (setting [2]) and at PPAR-alpha (setting [3]) was more than 10 µM throughout.
For the molecule `Cc1nc(-c2ccc(C(F)(F)F)cc2)sc1Cn1ccc2c(OCC(=O)O)cccc21` [Example 11, {1-[4-Methyl-2-(4-trifluoromethyl-phenyl)-thiazol-5-ylmethyl]-1H-indol-4-yloxy}acetic acid], the EC50 at PPAR-gamma (setting [4]), at PPAR-delta (setting [5]) and at PPAR-alpha (setting [6]) was more than 100 µM throughout.
Regarding `Cc1nc(-c2ccc(C(F)(F)F)cc2)sc1COc1ccc2ccn(CC(=O)O)c2c1` [Example 5, {6-[4-methyl-2-(4-trifluoromethyl-phenyl)-thiazol-5-ylmethoxy]-indol-1-yl}-acetic acid], the EC50 at PPAR-gamma (setting [1]) was 1 to 10 µM; on PPAR-delta (setting [2]), less than 1 µM; at PPAR-alpha (setting [3]), more than 10 µM.

Source of the values: patent publication US20050203151A1, “Novel compounds, compositions and uses thereof for treatment of metabolic disorders and related conditions” (Kalypsys, Inc., priority 2003, published 2005).
